Source: US11155539B2, “4-pyridinylmethyl-morpholine derivatives and the use thereof as medicament” (Boehringer Ingelheim International GmbH, priority 2018, dated 2021)

Assays:
[1] = target: T1, NMDA NR1/NR2B receptor (Homo sapiens, UniProt Q05586+Q13224); assay: In vitro NMDA NR1/NR2B cell assay (FLIPR, intracellular calcium induced by glycine/glutamate); format: cell-based; details: HEK293 cells expressing NMDA NR1/NR2B; 20 μM glycine, 1 μM glutamate; read-out: IC50 (in vitro NR2B affinity, FLIPR assay)
T1 construct: host or cells: HEK293, tetracycline-inducible expression
Method in brief: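 HEK293 cells with tetracycline-induced NR1/NR2B, induced 48 h, loaded with Fluo-8 for 60 min at room temperature, stimulated with 20 μM glycine plus 1 μM glutamate (final) in HEPES buffer pH 7.4. Compound added 2 min later at 0.9% DMSO; fluorescence at ~5 min normalised to DMSO and 1 μM reference NAM controls, IC50 by 4-parameter fit.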

[2] = target: Nav1.6 (Homo sapiens, UniProt Q9UQD0); assay: Nav 1.6 inhibition, IonWorks Quattro electrophysiology; format: cell-based; details: for inhibition at 1 µM / inhibition at 5 µM: normalized to vehicle control (0%) and maximal inhibition control (100%)
Method in brief: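 Human Nav1.6 currents recorded on IonWorks Quattro with amphotericin B (200 μg/ml) perforated access; compounds at final 1 and 5 μM in 0.3% DMSO. Cells held at −120 mV, prepulsed to 0 mV for 2500 ms, 10 ms recovery at −120 mV, then 20 ms test pulse to 0 mV; values are normalized percentage inhibition.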

Nav1.6, sequence (Q9UQD0 whole entry): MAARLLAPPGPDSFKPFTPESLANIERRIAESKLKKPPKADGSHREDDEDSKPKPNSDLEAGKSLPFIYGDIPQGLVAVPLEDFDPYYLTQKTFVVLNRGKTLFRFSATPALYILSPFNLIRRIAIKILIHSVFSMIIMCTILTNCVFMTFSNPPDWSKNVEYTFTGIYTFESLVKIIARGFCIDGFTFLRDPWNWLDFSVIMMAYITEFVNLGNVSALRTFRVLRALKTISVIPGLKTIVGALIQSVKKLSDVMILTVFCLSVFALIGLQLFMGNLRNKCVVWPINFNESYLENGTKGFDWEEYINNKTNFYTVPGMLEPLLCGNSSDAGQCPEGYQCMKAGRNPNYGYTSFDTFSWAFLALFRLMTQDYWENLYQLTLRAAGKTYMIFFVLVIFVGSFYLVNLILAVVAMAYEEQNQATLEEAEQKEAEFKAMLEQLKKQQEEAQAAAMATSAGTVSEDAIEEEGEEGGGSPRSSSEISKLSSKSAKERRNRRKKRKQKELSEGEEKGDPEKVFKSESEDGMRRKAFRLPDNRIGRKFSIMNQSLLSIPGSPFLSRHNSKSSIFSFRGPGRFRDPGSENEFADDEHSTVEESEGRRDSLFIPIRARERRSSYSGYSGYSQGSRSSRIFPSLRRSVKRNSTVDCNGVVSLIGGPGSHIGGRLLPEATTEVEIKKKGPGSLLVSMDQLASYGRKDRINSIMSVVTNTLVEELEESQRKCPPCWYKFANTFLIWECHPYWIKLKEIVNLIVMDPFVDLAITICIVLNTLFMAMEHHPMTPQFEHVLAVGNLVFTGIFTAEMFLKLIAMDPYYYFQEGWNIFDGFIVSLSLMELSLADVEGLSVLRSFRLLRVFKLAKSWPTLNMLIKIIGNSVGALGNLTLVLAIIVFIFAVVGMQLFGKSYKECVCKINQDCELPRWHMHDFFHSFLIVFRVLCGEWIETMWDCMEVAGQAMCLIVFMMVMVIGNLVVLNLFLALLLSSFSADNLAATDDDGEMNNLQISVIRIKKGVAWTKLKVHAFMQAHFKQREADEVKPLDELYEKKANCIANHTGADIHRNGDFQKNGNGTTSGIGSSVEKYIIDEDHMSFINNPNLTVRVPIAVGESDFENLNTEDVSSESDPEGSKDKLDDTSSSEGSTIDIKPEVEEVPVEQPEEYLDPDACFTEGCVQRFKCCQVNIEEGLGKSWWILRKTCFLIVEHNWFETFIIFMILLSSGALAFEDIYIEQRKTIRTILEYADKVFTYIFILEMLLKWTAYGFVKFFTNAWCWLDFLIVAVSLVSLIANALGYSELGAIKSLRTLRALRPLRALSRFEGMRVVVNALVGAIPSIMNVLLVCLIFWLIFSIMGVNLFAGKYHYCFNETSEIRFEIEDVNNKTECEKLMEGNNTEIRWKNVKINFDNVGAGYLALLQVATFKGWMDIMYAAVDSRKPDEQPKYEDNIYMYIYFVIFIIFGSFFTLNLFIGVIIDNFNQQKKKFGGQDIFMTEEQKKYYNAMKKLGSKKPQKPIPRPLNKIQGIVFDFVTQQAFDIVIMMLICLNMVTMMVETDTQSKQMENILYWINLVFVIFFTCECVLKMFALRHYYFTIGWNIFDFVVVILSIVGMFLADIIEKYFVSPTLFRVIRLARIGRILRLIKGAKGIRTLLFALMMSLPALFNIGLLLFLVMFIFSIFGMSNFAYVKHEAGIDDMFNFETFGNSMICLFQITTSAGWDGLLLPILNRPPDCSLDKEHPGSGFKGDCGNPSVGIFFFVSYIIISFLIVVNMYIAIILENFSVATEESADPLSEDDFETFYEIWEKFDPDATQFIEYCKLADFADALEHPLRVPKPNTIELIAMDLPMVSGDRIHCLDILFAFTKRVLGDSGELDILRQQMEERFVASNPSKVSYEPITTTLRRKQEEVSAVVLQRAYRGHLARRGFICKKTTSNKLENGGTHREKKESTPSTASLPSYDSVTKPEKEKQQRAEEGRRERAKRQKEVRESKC
T1 sequence (Q13224 27-1484, other chains not shown): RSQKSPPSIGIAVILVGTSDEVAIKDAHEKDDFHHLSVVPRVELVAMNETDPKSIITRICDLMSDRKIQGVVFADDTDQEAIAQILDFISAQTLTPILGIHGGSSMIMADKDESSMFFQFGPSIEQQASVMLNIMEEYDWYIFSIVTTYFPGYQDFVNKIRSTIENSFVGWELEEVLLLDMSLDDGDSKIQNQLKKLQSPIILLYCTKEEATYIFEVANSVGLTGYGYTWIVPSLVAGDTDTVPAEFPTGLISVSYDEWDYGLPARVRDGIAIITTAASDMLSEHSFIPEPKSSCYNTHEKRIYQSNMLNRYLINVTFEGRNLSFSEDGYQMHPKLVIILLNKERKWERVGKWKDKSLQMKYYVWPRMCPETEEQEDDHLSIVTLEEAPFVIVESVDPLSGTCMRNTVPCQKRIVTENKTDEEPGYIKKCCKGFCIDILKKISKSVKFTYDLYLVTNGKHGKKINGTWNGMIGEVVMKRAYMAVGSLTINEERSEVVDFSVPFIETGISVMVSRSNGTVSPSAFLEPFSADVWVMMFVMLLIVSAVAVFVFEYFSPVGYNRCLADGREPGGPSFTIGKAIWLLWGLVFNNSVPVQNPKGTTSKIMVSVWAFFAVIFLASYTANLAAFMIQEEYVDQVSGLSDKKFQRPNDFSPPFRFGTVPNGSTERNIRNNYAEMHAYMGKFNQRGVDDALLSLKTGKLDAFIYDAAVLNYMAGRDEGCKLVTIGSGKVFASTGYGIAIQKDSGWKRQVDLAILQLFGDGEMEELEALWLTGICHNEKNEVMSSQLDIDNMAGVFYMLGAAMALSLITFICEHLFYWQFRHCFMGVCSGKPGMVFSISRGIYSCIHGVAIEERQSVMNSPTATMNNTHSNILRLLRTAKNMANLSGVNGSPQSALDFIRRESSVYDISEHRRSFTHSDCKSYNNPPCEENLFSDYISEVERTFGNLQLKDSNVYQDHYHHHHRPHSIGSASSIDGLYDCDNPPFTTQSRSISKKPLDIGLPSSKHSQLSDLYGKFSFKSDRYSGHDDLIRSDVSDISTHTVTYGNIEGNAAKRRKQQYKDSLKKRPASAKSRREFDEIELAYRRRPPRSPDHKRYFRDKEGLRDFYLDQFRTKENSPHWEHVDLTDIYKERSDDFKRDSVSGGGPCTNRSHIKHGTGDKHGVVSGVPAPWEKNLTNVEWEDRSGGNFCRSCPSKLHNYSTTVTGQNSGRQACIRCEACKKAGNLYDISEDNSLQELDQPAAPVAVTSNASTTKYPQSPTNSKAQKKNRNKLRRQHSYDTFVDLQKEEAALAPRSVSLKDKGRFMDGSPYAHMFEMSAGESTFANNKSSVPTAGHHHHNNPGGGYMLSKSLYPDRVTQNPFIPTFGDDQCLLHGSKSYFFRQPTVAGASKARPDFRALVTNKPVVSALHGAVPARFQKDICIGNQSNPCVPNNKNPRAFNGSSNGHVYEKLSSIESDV

IC50 [1]	inhibition at 1 µM [2]	inhibition at 5 µM [2]	significant inhibition of the Nav 1.6 channel (in words) ([2]; at 5 μM)	Compound
188 nM	22%	-4.3%	–	CNC(=O)[C@@H]1CN(Cc2ccc(Oc3ccccc3Cl)nc2)CCO1 [Example 17]
199 nM	5.2%	-6.3%	not showing any significant inhibition	CNC(=O)[C@@H]1CN(Cc2ccc(Oc3ccccc3F)nc2)CCO1 [Example 19]
194 nM	1.8%	3%	–	CNC(=O)[C@@H]1CN(Cc2ccc(Oc3ccc(C)cc3)nc2)CCO1 [Example 29]
454 nM	7.6%	6.8%	–	CNC(=O)[C@@H]1CN(Cc2ccc(Oc3ccc(F)cc3)cn2)CCO1 [Example 30]
